Assay results published in US20060069132A1, “Azolecarboxamide herbicides” (priority 2004, published 2006).

Experiments:
[1] = system: large crabgrass; assay: Test B pre-/postemergence herbicide test; format: in vivo, Digitaria sanguinalis; conditions: for Crabgrass, Large plant response rating: postemergence, visual rating, scale 0 (no effect) to 100 (complete control)
Summary of the method: (§1)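 Flooded paddy rice and barnyardgrass were treated at the 2-leaf stage; upland plantings received compound either on sown seed or on 1- to 4-leaf seedlings. All were kept 13–15 days in a greenhouse and scored visually, 0–100, relative to untreated plants.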

[2] = system: corn; assay: Test B pre-/postemergence herbicide test; format: in vivo, Zea mays; conditions: for Corn plant response rating: postemergence, visual rating, scale 0 (no effect) to 100 (complete control)
Summary of the method: as §1

[3] = system: ducksalad; assay: Test B flooded paddy test; format: in vivo, Heteranthera limosa; conditions: 1000 g ai/ha, visual rating, scale 0 to 100 (0 no effect, 100 complete control), 13 to 15 days
Summary of the method: (§2)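 Greenhouse test; postemergence application to plants at 1–4 leaves (2–18 cm); paddy species at 2 leaves; evaluated visually vs controls at 13–15 days; scale 0–100 (100 = complete control).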

[4] = system: barnyardgrass; assay: Test B pre-/postemergence herbicide test; format: in vivo, Echinochloa crus-galli; conditions: for Barnyardgrass plant response rating: postemergence, visual rating, scale 0 (no effect) to 100 (complete control)
Summary of the method: (§3)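 Greenhouse pot assay with simultaneous preemergence (treated seed) and postemergence (2–18 cm seedlings) applications of surfactant-containing, non-phytotoxic solvent formulations. Response scored visually 13–15 days later on a 0–100 scale, 100 meaning complete control.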

[5] = system: Surinam grass; assay: Test B pre-/postemergence herbicide test; format: in vivo, Urochloa decumbens; conditions: for Surinam Grass plant response rating: postemergence, visual rating, scale 0 (no effect) to 100 (complete control)
Summary of the method: as §1

[6] = system: velvetleaf; assay: Test B pre-/postemergence herbicide test; format: in vivo, Abutilon theophrasti; conditions: for Velvetleaf plant response rating: postemergence, visual rating, scale 0 (no effect) to 100 (complete control)
Summary of the method: as §1

[7] = system: pigweed; assay: Test B pre-/postemergence herbicide test; format: in vivo, Amaranthus retroflexus; conditions: for Pigweed plant response rating: postemergence, visual rating, scale 0 (no effect) to 100 (complete control)
Summary of the method: as §1

[8] = system: small flower umbrella sedge; assay: Test B flooded paddy test; format: in vivo, Cyperus difformis; conditions: 1000 g ai/ha, visual rating, scale 0 to 100 (0 no effect, 100 complete control), 13 to 15 days
Summary of the method: as §2

[9] = system: cocklebur; assay: Test B pre-/postemergence herbicide test; format: in vivo, Xanthium strumarium; conditions: for Cocklebur plant response rating: postemergence, visual rating, scale 0 (no effect) to 100 (complete control)
Summary of the method: as §3

[10] = system: rice; assay: Test B pre-/postemergence herbicide test; format: in vivo, Oryza sativa; conditions: preemergence
Summary of the method: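 Evaluation is visual, comparing treated with control plants on a scale where 0 means no effect and 100 means full control. Treatments were preemergence, or postemergence on seedlings 2–18 cm tall, and held 13–15 days in the greenhouse.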

[11] = system: blackgrass; assay: Test B postemergence herbicide test; format: in vivo, Alopecurus myosuroides; conditions: postemergence, visual rating, scale 0 (no effect) to 100 (complete control)
Summary of the method: as §2

[12] = system: morningglory; assay: Test B pre-/postemergence herbicide test; format: in vivo, Ipomoea coccinea; conditions: for Morningglory plant response rating: postemergence, visual rating, scale 0 (no effect) to 100 (complete control)
Summary of the method: as §3

[13] = system: barnyardgrass; assay: Test B flooded paddy test; format: in vivo, Echinochloa crus-galli; conditions: 1000 g ai/ha, visual rating, scale 0 to 100 (0 no effect, 100 complete control), 13 to 15 days
Summary of the method: as §2

[14] = system: wild oat; assay: Test B postemergence herbicide test; format: in vivo, Avena fatua; conditions: postemergence, visual rating, scale 0 (no effect) to 100 (complete control)
Summary of the method: (§4)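 Each value is a visual 0–100 response rating taken against controls 13 to 15 days after treatment in the greenhouse. Plants received formulated chemical postemergence at the 1- to 4-leaf stage or, in flooded paddy, at the 2-leaf stage.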

[15] = system: rice; assay: Test B flooded paddy test; format: in vivo, Oryza sativa; conditions: 1000 g ai/ha, visual rating, scale 0 to 100 (0 no effect, 100 complete control), 13 to 15 days
Summary of the method: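 After treating 2-leaf paddy plants or 2–18 cm postemergence plants (1 to 4 leaves) with formulated chemical, researchers kept them in a greenhouse for 13–15 days. Effects were judged visually versus controls: 0 indicates none, 100 total control.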

[16] = system: lambsquarters; assay: Test B pre-/postemergence herbicide test; format: in vivo, Chenopodium album; conditions: for Lambsquarters plant response rating: postemergence, visual rating, scale 0 (no effect) to 100 (complete control)
Summary of the method: as §1

[17] = system: giant foxtail; assay: Test B pre-/postemergence herbicide test; format: in vivo, Setaria faberi; conditions: for Foxtail, Giant plant response rating: postemergence, visual rating, scale 0 (no effect) to 100 (complete control)
Summary of the method: as §1

[18] = system: wheat; assay: Test B postemergence herbicide test; format: in vivo, Triticum aestivum; parameters: key to Wheat plant response rating: 0 = no effect, 100 = complete control; conditions: postemergence, visual rating, scale 0 (no effect) to 100 (complete control)
Summary of the method: as §4

[19] = 125 g ai/ha, 0 = no effect, 100 = complete control, preemergence
[20] = 500 g ai/ha, visual rating 0-100, 0 no effect, 100 complete control, preemergence

SMILES: CCCc1nn(C(C)(C)C)cc1C(=O)Nc1cccc(C(=O)N(CC)CC)c1 [Compound 185]
- Crabgrass, Large plant response rating (0 to 100 scale) [1, 19]: 0
- Plant response rating, Crabgrass, Large [1, 20]: 50
- Crabgrass, Large plant response rating ([1]; 125 g ai/ha): 20
- Crabgrass, Large plant response rating ([1]; 500 g ai/ha): 40
- Corn plant response rating (0 to 100 scale) [2, 19]: 0
- Plant response rating, Corn [2, 20]: 0
- Corn plant response rating ([2]; 125 g ai/ha): 20
- Corn plant response rating ([2]; 500 g ai/ha): 30
- Ducksalad plant response rating [3]: 0
- Barnyardgrass plant response rating (0 to 100 scale) [4, 19]: 0
- Plant response rating, Barnyardgrass [4, 20]: 70
- Barnyardgrass plant response rating ([4]; 125 g ai/ha): 30
- Barnyardgrass plant response rating ([4]; 500 g ai/ha): 50
- Surinam Grass plant response rating (0 to 100 scale) [5, 19]: 10
- Plant response rating, Surinam Grass [5, 20]: 20
- Surinam Grass plant response rating ([5]; 125 g ai/ha): 20
- Surinam Grass plant response rating ([5]; 500 g ai/ha): 30
- Velvetleaf plant response rating (0 to 100 scale) [6, 19]: 10
- Plant response rating, Velvetleaf [6, 20]: 50
- Velvetleaf plant response rating ([6]; 125 g ai/ha): 30
- Velvetleaf plant response rating ([6]; 500 g ai/ha): 50
- Pigweed plant response rating (0 to 100 scale) [7, 19]: 0
- Plant response rating, Pigweed [7, 20]: 100
- Pigweed plant response rating ([7]; 125 g ai/ha): 60
- Pigweed plant response rating ([7]; 500 g ai/ha): 80
- Sedge, Umbrella plant response rating [8]: 60
- Cocklebur plant response rating (0 to 100 scale) [9, 19]: 0
- Plant response rating, Cocklebur [9, 20]: 0
- Cocklebur plant response rating ([9]; 125 g ai/ha): 20
- Cocklebur plant response rating ([9]; 500 g ai/ha): 50
- Rice plant response rating (0 to 100 scale) ([10]; 125 g ai/ha, 0 = no effect, 100 = complete control): 0
- Plant response rating, Rice ([10]; 500 g ai/ha, visual rating 0-100, 0 no effect, 100 complete control): 0
- Blackgrass plant response rating ([11]; 125 g ai/ha): 0
- Blackgrass plant response rating ([11]; 500 g ai/ha): 0
- Morningglory plant response rating (0 to 100 scale) [12, 19]: 0
- Plant response rating, Morningglory [12, 20]: 50
- Morningglory plant response rating ([12]; 125 g ai/ha): 40
- Morningglory plant response rating ([12]; 500 g ai/ha): 70
- Barnyardgrass plant response rating [13]: 0
- Oat, Wild plant response rating ([14]; 125 g ai/ha): 10
- Oat, Wild plant response rating ([14]; 500 g ai/ha): 30
- Rice plant response rating [15]: 0
- Lambsquarters plant response rating (0 to 100 scale) [16, 19]: 20
- Plant response rating, Lambsquarters [16, 20]: 80
- Lambsquarters plant response rating ([16]; 125 g ai/ha): 60
- Lambsquarters plant response rating ([16]; 500 g ai/ha): 70
- Foxtail, Giant plant response rating (0 to 100 scale) [17, 19]: 0
- Plant response rating, Foxtail, Giant [17, 20]: 70
- Foxtail, Giant plant response rating ([17]; 125 g ai/ha): 20
- Foxtail, Giant plant response rating ([17]; 500 g ai/ha): 30
- Wheat plant response rating ([18]; 125 g ai/ha): 0
- Wheat plant response rating ([18]; 500 g ai/ha): 10
